Data as given in PubChem BioAssay AID328 (DTP/NCI, 2004).
Values joined by “and” are separate entries in the source; they are usually repeats but may differ in a detail not shown here. Identical values can stand only once. Toxic doses and inconclusive results are not listed.

Tested on: BDF1 mice, P388 leukemia ip, median survival T/C
Test: NCI In Vivo Anticancer Drug Screen. Data for tumor model P388 Leukemia (intraperitoneal) in B6D2F1 (BDF1) mice
Details: endpoint: median survival time, higher = longer survival
Outline: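 T/C = treated-group survival ÷ vehicle-control survival; tumour transplanted into mice before dosing.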

[1] = dose: 50.0 mg/kg/injection, schedule: Q01DX009 (ip), vehicle: saline with Tween-80
[2] = dose: 100.0 mg/kg/injection, schedule: Q01DX009 (ip), vehicle: saline with Tween-80
[3] = dose: 200.0 mg/kg/injection, schedule: Q01DX009 (ip), vehicle: saline with Tween-80
[4] = dose: 12.5 mg/kg/injection, schedule: Q01DX009 (ip), vehicle: saline with Tween-80
[5] = dose: 25.0 mg/kg/injection, schedule: Q01DX009 (ip), vehicle: saline with Tween-80
[6] = dose: 6.25 mg/kg/injection, schedule: Q01DX009 (ip), vehicle: water
[7] = dose: 12.5 mg/kg/injection, schedule: Q01DX009 (ip), vehicle: water
[8] = dose: 25.0 mg/kg/injection, schedule: Q01DX009 (ip), vehicle: water
[9] = dose: 25.0 mg/kg/injection, schedule: Q04DX003 (ip), vehicle: water
[10] = dose: 50.0 mg/kg/injection, schedule: Q01DX009 (ip), vehicle: water
[11] = dose: 50.0 mg/kg/injection, schedule: Q04DX003 (ip), vehicle: water
[12] = dose: 100.0 mg/kg/injection, schedule: Q01DX009 (ip), vehicle: water
[13] = dose: 100.0 mg/kg/injection, schedule: Q04DX003 (ip), vehicle: water
[14] = dose: 200.0 mg/kg/injection, schedule: Q04DX003 (ip), vehicle: water
[15] = dose: 100.0 mg/kg/injection, schedule: Q04DX003 (ip), vehicle: saline
[16] = dose: 200.0 mg/kg/injection, schedule: Q04DX003 (ip), vehicle: saline
[17] = dose: 25.0 mg/kg/injection, schedule: Q04DX003 (ip), vehicle: saline with Tween-80
[18] = dose: 50.0 mg/kg/injection, schedule: Q04DX003 (ip), vehicle: saline with Tween-80
[19] = dose: 100.0 mg/kg/injection, schedule: Q04DX003 (ip), vehicle: saline with Tween-80
[20] = dose: 100.0 mg/kg/injection, schedule: Q04DX003 (ip), vehicle: Klucel (hydroxypropylcellulose) (HPC)
[21] = dose: 200.0 mg/kg/injection, schedule: Q04DX003 (ip), vehicle: saline with Tween-80
[22] = dose: 400.0 mg/kg/injection, schedule: Q04DX003 (ip), vehicle: saline with Tween-80
[23] = dose: 400.0 mg/kg/injection, schedule: Q01DX009 (ip), vehicle: saline with Tween-80

SMILES: CC1([CH2][Hg][I])COCC([CH2][Hg][I])O1 (stereo not given)
- T/C (dose: 2.87 mg/kg/injection, schedule: Q04DX003 (ip), vehicle: saline): 100 % of control
- T/C (dose: 5.0 mg/kg/injection, schedule: Q01DX009 (ip), vehicle: saline with Tween-80): 118 % of control
- T/C (dose: 5.0 mg/kg/injection, schedule: Q04DX003 (ip), vehicle: saline with Tween-80): 100 % of control
- T/C (dose: 5.75 mg/kg/injection, schedule: Q01DX009 (ip), vehicle: saline): 95 % of control
- T/C (dose: 5.75 mg/kg/injection, schedule: Q04DX003 (ip), vehicle: saline): 109 % of control
- T/C (dose: 10.0 mg/kg/injection, schedule: Q01DX009 (ip), vehicle: saline with Tween-80): 113 % of control
- T/C (dose: 10.0 mg/kg/injection, schedule: Q04DX003 (ip), vehicle: saline with Tween-80): 90 % of control
- T/C (dose: 11.5 mg/kg/injection, schedule: Q01DX009 (ip), vehicle: saline): 100 % of control
- T/C (dose: 11.5 mg/kg/injection, schedule: Q04DX003 (ip), vehicle: saline): 100 % of control
- T/C (dose: 17.0 mg/kg/injection, schedule: Q04DX003 (ip), vehicle: saline): 100 % of control
- T/C (dose: 20.0 mg/kg/injection, schedule: Q01DX009 (ip), vehicle: saline with Tween-80): 95 % of control
- T/C (dose: 20.0 mg/kg/injection, schedule: Q04DX003 (ip), vehicle: saline with Tween-80): 118 % of control
- T/C (dose: 26.0 mg/kg/injection, schedule: Q04DX003 (ip), vehicle: saline): 118 % of control

SMILES: O=C(O)c1ccc(COc2ccc([N+](=O)[O-])cc2Cl)cc1
- T/C [1]: 91 % of control
- T/C [2]: 100 % of control
- T/C [3]: 100 % of control

SMILES: O=C(Nc1cc(Cl)ccc1Cl)O/N=C/c1ccncc1
- T/C [4]: 106 % of control
- T/C [5]: 90 % of control
- T/C [1]: 96 % of control

SMILES: NC(Cc1ccccc1Cl)c1nn[nH]n1 (stereo not given)
- T/C (dose: 50.0 mg/kg/injection, schedule: Q04DX002 (ip), vehicle: saline with Tween-80): 100 % of control
- T/C (dose: 200.0 mg/kg/injection, schedule: Q04DX002 (ip), vehicle: saline with Tween-80): 121 % of control

SMILES: O=C1CCC2N1CCC1CCCCN12 (stereo not given)
- T/C [6]: 98 % of control
- T/C [7]: 100 % of control
- T/C [8]: 86 % of control
- T/C [9]: 107 % of control
- T/C [10]: 94 % of control
- T/C [11]: 118 % of control
- T/C [12]: 91 % of control
- T/C [13]: 107 % of control
- T/C [14]: 109 % of control

SMILES: c1ccc(C(NC2CC3CCC2C3)c2ccccc2)cc1 (stereo not given)
- T/C (dose: 50.0 mg/kg/injection, schedule: Q04DX003 (ip), vehicle: saline): 108 % of control
- T/C [15]: 108 % of control
- T/C [16]: 108 % of control

SMILES: O=C1CCC([N+](=O)[O-])C(c2ccccc2Cl)N1 (stereo not given)
- T/C [1]: 99 % of control
- T/C [2]: 86 % of control
- T/C [3]: 94 % of control

SMILES: CC(C)(C)c1ccc(C(=O)C2CC2)cc1
- T/C [17]: 90 % of control
- T/C [18]: 95 % of control
- T/C [19]: 86 % of control

SMILES: COc1ccccc1NC(=O)N(CCCl)N=O
- T/C (dose: 0.1 mg/kg/injection, schedule: Q04DX003 (ip), vehicle: saline with Tween-80): 110 % of control
- T/C (dose: 0.2 mg/kg/injection, schedule: Q04DX003 (ip), vehicle: saline with Tween-80): 100 % of control
- T/C (dose: 0.4 mg/kg/injection, schedule: Q04DX003 (ip), vehicle: saline with Tween-80): 105 % of control
- T/C (dose: 0.8 mg/kg/injection, schedule: Q04DX003 (ip), vehicle: saline with Tween-80): 110 % of control

SMILES: O=Ic1ccccc1
- T/C (dose: 6.25 mg/kg/injection, schedule: Q01DX009 (ip), vehicle: Klucel (hydroxypropylcellulose) (HPC)): 105 % of control and 118 % of control
- T/C (dose: 12.5 mg/kg/injection, schedule: Q01DX009 (ip), vehicle: Klucel (hydroxypropylcellulose) (HPC)): 105 % of control and 116 % of control
- T/C (dose: 25.0 mg/kg/injection, schedule: Q01DX009 (ip), vehicle: Klucel (hydroxypropylcellulose) (HPC)): 122 % of control and 124 % of control and 204 % of control
- T/C (dose: 50.0 mg/kg/injection, schedule: Q04DX003 (ip), vehicle: Klucel (hydroxypropylcellulose) (HPC)): 104 % of control
- T/C [20]: 95 % of control

SMILES: CCOC(=O)N1C=Cn2c(cnc2C)C1O (stereo not given)
- T/C (dose: 50.0 mg/kg/injection, schedule: Q01DX009 (ip), vehicle: saline): 105 % of control
- T/C [10]: 110 % of control
- T/C (dose: 100.0 mg/kg/injection, schedule: Q01DX009 (ip), vehicle: saline): 97 % of control
- T/C [12]: 103 % of control
- T/C [15]: 100 % of control
- T/C [13]: 96 % of control
- T/C (dose: 200.0 mg/kg/injection, schedule: Q01DX009 (ip), vehicle: water): 94 % of control
- T/C [16]: 102 % of control
- T/C [14]: 96 % of control
- T/C (dose: 400.0 mg/kg/injection, schedule: Q01DX009 (ip), vehicle: water): 94 % of control
- T/C (dose: 400.0 mg/kg/injection, schedule: Q04DX003 (ip), vehicle: saline): 93 % of control
- T/C (dose: 400.0 mg/kg/injection, schedule: Q04DX003 (ip), vehicle: water): 88 % of control

SMILES: CN1CCOC1=Nc1ccc(Cl)cc1
- T/C [18]: 104 % of control
- T/C [19]: 86 % of control and 100 % of control
- T/C [21]: 95 % of control
- T/C [22]: 90 % of control

SMILES: O=[N+]([O-])c1ccc(-c2nnc3ncccn23)cc1
- T/C [1]: 102 % of control
- T/C [2]: 98 % of control
- T/C [3]: 90 % of control

SMILES: COC(=O)CCC(=O)CCC(C)C
- T/C [5]: 107 % of control
- T/C [1]: 103 % of control
- T/C [2]: 92 % of control
- T/C [19]: 111 % of control
- T/C [3]: 103 % of control
- T/C [21]: 122 % of control
- T/C [23]: 92 % of control
- T/C [22]: 116 % of control

SMILES: Cc1[o+]c(C)c2c(c1C)-c1ccccc1C2=O
- T/C (dose: 6.25 mg/kg/injection, schedule: Q01DX009 (ip), vehicle: saline with Tween-80): 104 % of control
- T/C [4]: 113 % of control
- T/C [5]: 98 % of control
- T/C [17]: 109 % of control
- T/C [1]: 106 % of control
- T/C [2]: 120 % of control
- T/C [19]: 100 % of control
- T/C [3]: 104 % of control
- T/C [21]: 116 % of control

SMILES: O=C(O)c1ccccc1C(=O)Nc1cc(C(F)(F)F)ccc1Cl
- T/C [19]: 90 % of control
- T/C [21]: 104 % of control
- T/C [22]: 118 % of control

SMILES: Cc1ccc(NC(=S)NCCc2ccccn2)cc1C
- T/C [1]: 101 % of control and 124 % of control
- T/C [2]: 100 % of control and 102 % of control
- T/C [3]: 104 % of control and 106 % of control
- T/C [23]: 100 % of control

SMILES: NC(N)=NCCCC(NC(=O)OCc1ccccc1)C(=O)O (stereo not given)
- T/C [20]: 100 % of control
- T/C (dose: 200.0 mg/kg/injection, schedule: Q04DX003 (ip), vehicle: Klucel (hydroxypropylcellulose) (HPC)): 104 % of control
- T/C (dose: 400.0 mg/kg/injection, schedule: Q04DX003 (ip), vehicle: Klucel (hydroxypropylcellulose) (HPC)): 100 % of control

SMILES: Cn1cc(/C=C\C(=O)O)c2nccnc21
- T/C [6]: 96 % of control
- T/C [7]: 90 % of control
- T/C [8]: 90 % of control
- T/C [12]: 102 % of control

SMILES: CC(Br)C(=O)c1ccc(OCc2ccccc2)cc1 (stereo not given)
- T/C [1]: 117 % of control
- T/C [2]: 119 % of control

SMILES: COc1cccc(C(O)c2ccncc2C)c1OC (stereo not given)
- T/C (dose: 12.5 mg/kg/injection, schedule: Q04DX003 (ip), vehicle: water): 103 % of control
- T/C [9]: 97 % of control
- T/C [11]: 102 % of control
- T/C [13]: 112 % of control
- T/C [14]: 97 % of control

SMILES: N\C([S-])=N/N=C\C(=N/N=C(\N)[S-])C(O)C(O)C(O)CO.[Rh+2] (stereo not given)
- T/C (dose: 100.0 mg/kg/injection, schedule: Q01DX001 (ip), vehicle: Klucel (hydroxypropylcellulose) (HPC)): 100 % of control
- T/C (dose: 200.0 mg/kg/injection, schedule: Q01DX001 (ip), vehicle: Klucel (hydroxypropylcellulose) (HPC)): 104 % of control
- T/C (dose: 400.0 mg/kg/injection, schedule: Q01DX001 (ip), vehicle: Klucel (hydroxypropylcellulose) (HPC)): 109 % of control

SMILES: COc1c(Cl)cc2c(c1OC)N(C)C1N3C(=O)C4(C)SSC3(C(=O)N4C)C(O)C21O (stereo not given)
- T/C (dose: 0.12 mg/kg/injection, schedule: Q01DX009 (ip), vehicle: Klucel (hydroxypropylcellulose) (HPC)): 86 % of control
- T/C (dose: 0.25 mg/kg/injection, schedule: Q01DX009 (ip), vehicle: Klucel (hydroxypropylcellulose) (HPC)): 109 % of control
